The results in this text go back to US20130030012A1, “COMPOUNDS” (Glaxo Group Limited, priority 2011, published 2013).

Test [1] concerns the target T1, Lp-PLA2 in human plasma (Homo sapiens, UniProt Q13093).
T1 construct: from tissue; host or cells: pooled human plasma
T1 sequence (Q13093 22-441): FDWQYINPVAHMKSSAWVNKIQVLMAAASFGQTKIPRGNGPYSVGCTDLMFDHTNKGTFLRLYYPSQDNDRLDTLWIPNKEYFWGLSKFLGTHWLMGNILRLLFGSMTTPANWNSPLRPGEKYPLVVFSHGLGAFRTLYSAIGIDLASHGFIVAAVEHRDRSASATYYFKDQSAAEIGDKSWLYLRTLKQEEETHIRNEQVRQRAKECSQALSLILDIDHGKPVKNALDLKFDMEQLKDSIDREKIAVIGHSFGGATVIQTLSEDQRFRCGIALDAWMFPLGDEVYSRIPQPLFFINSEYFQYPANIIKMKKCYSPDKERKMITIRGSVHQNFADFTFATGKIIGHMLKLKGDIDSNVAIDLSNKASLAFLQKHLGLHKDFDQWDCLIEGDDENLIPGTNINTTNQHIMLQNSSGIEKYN
Briefly: Lp-PLA2 human plasma assay (Thio-PAF assay). Format: biochemical. The conditions noted are these: pooled human plasma; read-out: pIC50 values in the thio-PAF assay (converted). The method in brief:
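Pooled human plasma preincubated 30 min with compounds, then given substrate mix of 2.5 mM 2-thio-PAF, […] and 3.2 mM NEM (concentrations in substrate solution) in pH 7.4 HEPES/NaCl/CHAPS buffer. Quenched with TFA after 2 min; CPM-thiol fluorescence read at ex 380/em 485 to give pIC50.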

The target of test [2] is T2, recombinant human Lp-PLA2 (Homo sapiens, UniProt Q13093).
T2 sequence (Q13093 22-441): T1 sequence (Q13093 22-441)
Briefly: Recombinant human Lp-PLA2 assay (rhLp-PLA2, PED6 assay). Format: biochemical. The conditions noted are these: upper limit for pIC50 in this assay is 9.3. The method in brief:
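Enzyme at 4 nM (or 110 pM) in 50 mM HEPES pH 7.4, 150 mM NaCl, 1 mM CHAPS, preincubated with compound 30 min. PED6 substrate ([…] 5 μM, as printed) then added and reaction run 20 min at room temperature, protected from light. Fluorescence read at ex 480/em 540; pIC50 from curve fitting.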

Setting [3] is: read-out: pIC50 values in the PED6 assay (converted).
The mark [4] stands for this setting: Table 1, read-out: rhLp-PLA2 (PED6 assay) (pIC50) (converted).

Structures are written as SMILES. Where two headings read alike, the source gives them in different places.

Turning to `CN1CCCn2c1cc(OCc1cc(F)c(Oc3cccc(Cl)c3)c(F)c1)nc2=O` [Example 90, 8-((4-(3-chlorophenoxy)-3,5-difluorobenzyl)oxy)-1-methyl-3,4-dihydro-1H-pyrimido[1,6-a]pyrimidin-6(2H)-one], the IC50 is ≤ 1000 nM in test [1] and ≤ 1 nM in test [2] (setting [3]).

Consider `CC(C)N1CCCn2c1cc(OCc1ccc(Oc3ccc(C(F)(F)F)nc3)c(F)c1)nc2=O` [Example 38, 8-((3-fluoro-4-((6-(trifluoromethyl)pyridin-3-yl)oxy)benzyl)oxy)-1-isopropyl-3,4-dihydro-1H-pyrimido[1,6-a]pyrimidin-6(2H)-one], for which the results for the IC50 in test [1] and in test [2] (setting [3]) were ≤ 100 nM and ≤ 10 nM, respectively.

As for `O=c1nc(OCc2cc(F)c(Oc3ccc(F)c(F)c3)c(F)c2)cc2n1CCCN2` [Example 91, 8-((4-(3,4-difluorophenoxy)-3,5-difluorobenzyl)oxy)-3,4-dihydro-1H-pyrimido[1,6-a]pyrimidin-6(2H)-one], the values for the IC50 in test [1] and in test [2] (setting [3]) were ≤ 100 nM and ≤ 1 nM, respectively.

Regarding `N#Cc1cc(COc2cc3n(c(=O)n2)CCCN3)ccc1Oc1ccc(Cl)c(C(F)(F)F)c1` [Example 107, 2-(4-chloro-3-(trifluoromethyl)phenoxy)-5-(((6-oxo-2,3,4,6-tetrahydro-1H-pyrimido[1,6-a]pyrimidin-8-yl)oxy)methyl)benzonitrile], the IC50 is ≤ 100 nM in test [1] and ≤ 1 nM in test [2] (setting [3]).

On to `O=c1nc(OCc2ccc(Oc3ccc(F)cc3)c(F)c2)cc2n1CCCN2` [Example 118, 8-((3-fluoro-4-(4-fluorophenoxy)benzyl)oxy)-3,4-dihydro-1H-pyrimido[1,6-a]pyrimidin-6(2H)-one], for which the IC50 in test [1] was ≤ 100 nM; in test [2] (setting [3]), ≤ 1 nM.

On to `CN1CCCn2c1cc(OCCc1ccc(Oc3ccc(C(F)(F)F)c(Cl)c3)cn1)nc2=O` [Example 54, 8-(2-(5-(3-chloro-4-(trifluoromethyl)phenoxy)pyridin-2-yl)ethoxy)-1-methyl-3,4-dihydro-1H-pyrimido[1,6-a]pyrimidin-6(2H)-one], for which the IC50 was ≤ 1000 nM in test [1] and ≤ 10 nM in test [2] (setting [3]).

Turning to `CN1CCCn2c1cc(OCc1ccc(Oc3cccc(C(F)(F)F)c3)cc1)nc2=O` [Example 77, 1-methyl-8-((4-(3-(trifluoromethyl)phenoxy)benzyl)oxy)-3,4-dihydro-1H-pyrimido[1,6-a]pyrimidin-6(2H)-one], the IC50 in test [1] was ≤ 1000 nM; in test [2] (setting [3]) it was ≤ 10 nM.

Take `N#Cc1ccc(Oc2ccc(COc3cc4n(c(=O)n3)CCCN4)cc2C#N)cc1Cl` [Example 106, 2-chloro-4-(2-cyano-4-(((6-oxo-2,3,4,6-tetrahydro-1H-pyrimido[1,6-a]pyrimidin-8-yl)oxy)methyl)phenoxy)benzonitrile]: the values for the IC50 in test [1] and in test [2] (setting [3]) were ≤ 100 nM and ≤ 10 nM, respectively.

In the case of `O=c1nc(OCc2cc(F)c(F)c(F)c2)cc2n1CCCN2` [Example 113, 8-(3,4,5-trifluorobenzyloxy)-3,4-dihydro-1H-pyrimido[1,6-a]pyrimidin-6(2H)-one], the results for the IC50 in test [1] and in test [2] (setting [3]) were ≤ 100 nM and ≤ 10 nM, respectively.

As to `CN1CCCn2c1cc(OCc1ccc(Oc3ccc(F)c(C(F)(F)F)c3)c(F)c1)nc2=O` [Example 13, 8-((3-fluoro-4-(4-fluoro-3-(trifluoromethyl)phenoxy)benzyl)oxy)-1-methyl-3,4-dihydro-1H-pyrimido[1,6-a]pyrimidin-6(2H)-one], the IC50 in test [1] is ≤ 100 nM; in test [2] (setting [3]) it was ≤ 10 nM.

Consider `CN1CCCn2c1cc(OCc1ccc(Oc3cccc(C(F)(F)F)c3)c(F)c1)nc2=O` [Example 28, 8-((3-fluoro-4-(3-(trifluoromethyl)phenoxy)benzyl)oxy)-1-methyl-3,4-dihydro-1H-pyrimido[1,6-a]pyrimidin-6(2H)-one], for which the IC50 in test [1] was ≤ 100 nM; in test [2] (setting [4]) it was 2.51 nM; in test [2] (setting [3]) it was ≤ 10 nM.

With `O=c1nc(OCc2ccc(Oc3cccc(C(F)(F)F)c3)c(F)c2)cc2n1CCCN2` [Example 101, 8-((3-fluoro-4-(3-(trifluoromethyl)phenoxy)benzyl)oxy)-3,4-dihydro-1H-pyrimido[1,6-a]pyrimidin-6(2H)-one], the IC50 was ≤ 100 nM in test [1] and ≤ 1 nM in test [2] (setting [3]).

Regarding `CN1CCCn2c1cc(OCc1ccc(Oc3cccc(C#N)c3)c(F)c1)nc2=O` [Example 85, 3-(2-fluoro-4-(((1-methyl-6-oxo-2,3,4,6-tetrahydro-1H-pyrimido[1,6-a]pyrimidin-8-yl)oxy)methyl)phenoxy)benzonitrile], the IC50 in test [1] was ≤ 1000 nM; in test [2] (setting [3]) it was ≤ 10 nM.

Take `CN1CCCn2c1cc(OCCc1ccc(Oc3ccc(Cl)c(C(F)(F)F)c3)cc1)nc2=O` [Example 55, 8-(4-(4-chloro-3-(trifluoromethyl)phenoxy)phenethoxy)-1-methyl-3,4-dihydro-1H-pyrimido[1,6-a]pyrimidin-6(2H)-one]: the IC50 in test [1] was ≤ 100 nM; in test [2] (setting [3]), ≤ 1 nM.

As to `CN1CCCn2c1cc(OCCc1ccc(Oc3ccc(Cl)c(F)c3)cc1)nc2=O` [Example 103, 8-(4-(4-chloro-3-fluorophenoxy)phenethoxy)-1-methyl-3,4-dihydro-1H-pyrimido[1,6-a]pyrimidin-6(2H)-one], the IC50 is ≤ 1000 nM in test [1] and ≤ 10 nM in test [2] (setting [3]).

On to `O=c1nc(OCc2cc(F)c(Oc3ccc(C(F)(F)F)nc3)c(F)c2)cc2n1CCCN2` [Example 75, 8-((3,5-difluoro-4-((6-(trifluoromethyl)pyridin-3-yl)oxy)benzyl)oxy)-3,4-dihydro-1H-pyrimido[1,6-a]pyrimidin-6(2H)-one], for which the results for the IC50 in test [1], in test [2] (setting [4]) and in test [2] (setting [3]) were ≤ 100 nM, < 0.501 nM and ≤ 1 nM, respectively.

With `CN1CCCn2c1cc(OCc1cc(F)c(Oc3cccc(C(F)(F)F)c3)c(F)c1)nc2=O` [Example 81, 8-((3,5-difluoro-4-(3-(trifluoromethyl)phenoxy)benzyl)oxy)-1-methyl-3,4-dihydro-1H-pyrimido[1,6-a]pyrimidin-6(2H)-one], the IC50 in test [1] is ≤ 100 nM; in test [2] (setting [3]), ≤ 1 nM.

Regarding `CN1CCCn2c1cc(OCc1ccc(Oc3ccc(C(F)(F)F)nc3)c(F)c1)nc2=O` [Example 4, 8-((3-fluoro-4-((6-(trifluoromethyl)pyridin-3-yl)oxy)benzyl)oxy)-1-methyl-3,4-dihydro-1H-pyrimido[1,6-a]pyrimidin-6(2H)-one], the results for the IC50 in test [1] and in test [2] (setting [3]) were ≤ 100 nM and ≤ 10 nM, respectively.

On to `CN1CCCn2c1cc(OCCc1ccc(Oc3ccc(Cl)c(F)c3)c(F)c1)nc2=O` [Example 102, 8-(4-(4-chloro-3-fluorophenoxy)-3-fluorophenethoxy)-1-methyl-3,4-dihydro-1H-pyrimido[1,6-a]pyrimidin-6(2H)-one], for which the IC50 in test [1] is ≤ 1000 nM; in test [2] (setting [3]), ≤ 1 nM.

As to `CN1CCCn2c1cc(OCc1ccc(Oc3ccc(Cl)c(F)c3)c(C#N)c1)nc2=O` [Example 96, 2-(4-chloro-3-fluorophenoxy)-5-(((1-methyl-6-oxo-2,3,4,6-tetrahydro-1H-pyrimido[1,6-a]pyrimidin-8-yl)oxy)methyl)benzonitrile], the IC50 is ≤ 100 nM in test [1] and ≤ 1 nM in test [2] (setting [3]).

Turning to `CN1CCCn2c1cc(OCc1ccc(Oc3ccc(F)c(F)c3)c(C#N)c1)nc2=O` [Example 34, 2-(3,4-difluorophenoxy)-5-(((1-methyl-6-oxo-2,3,4,6-tetrahydro-1H-pyrimido[1,6-a]pyrimidin-8-yl)oxy)methyl)benzonitrile], the IC50 in test [1] is ≤ 100 nM; in test [2] (setting [3]), ≤ 10 nM.

Turning to `CN1CCCn2c1cc(OCc1cc(F)c(Oc3ccc(F)c(C(F)(F)F)c3)c(F)c1)nc2=O` [Example 88, 8-((3,5-difluoro-4-(4-fluoro-3-(trifluoromethyl)phenoxy)benzyl)oxy)-1-methyl-3,4-dihydro-1H-pyrimido[1,6-a]pyrimidin-6(2H)-one], the IC50 in test [1] was ≤ 100 nM; in test [2] (setting [3]), ≤ 1 nM.

Turning to `CN1CCCn2c1cc(OCc1ccc(Oc3cccnc3)c(C#N)c1)nc2=O` [Example 76, 5-(((1-methyl-6-oxo-2,3,4,6-tetrahydro-1H-pyrimido[1,6-a]pyrimidin-8-yl)oxy)methyl)-2-(pyridin-3-yloxy)benzonitrile], the IC50 in test [1] is ≤ 100 nM; in test [2] (setting [4]) it was 1.26 nM; in test [2] (setting [3]), ≤ 10 nM.

Consider `CN1CCCn2c1cc(OCc1cc(F)c(F)c(F)c1)nc2=O` [Example 21, 1-methyl-8-((3,4,5-trifluorobenzyl)oxy)-3,4-dihydro-1H-pyrimido[1,6-a]pyrimidin-6(2H)-one], for which the IC50 in test [1] is ≤ 100 nM; in test [2] (setting [4]) it was 2 nM; in test [2] (setting [3]), ≤ 10 nM.

Take `O=c1nc(OCc2ccc(Oc3ccc(F)c(F)c3)cc2)cc2n1CCCN2` [Example 119, 8-((4-(3,4-difluorophenoxy)benzyl)oxy)-3,4-dihydro-1H-pyrimido[1,6-a]pyrimidin-6(2H)-one]: the results for the IC50 in test [1] and in test [2] (setting [3]) were ≤ 100 nM and ≤ 1 nM, respectively.
